Source: article PMC5478727, “A Novel Small Molecule GDNF Receptor RET Agonist, BT13, Promotes Neurite Growth from Sensory Neurons in Vitro and Attenuates Experimental Neuropathy in the Rat” (Frontiers in Pharmacology, 2017)
pEC50: −log10 of the molar value.

Key:
GFRα1/RET = biological target: T1, GFRα1/RET (Homo sapiens, UniProt P07949); test: Luciferase reporter-gene assay (PathDetect Elk-1), GFRα1/RET reporter cells; format: cell-based; details: GFRα1/RET reporter cell line
T1 construct: full-length human RET (long isoform) in pCR3.1; expressed in transfected cells; host or cells: MG87 murine fibroblasts (MG87RET + PathDetect Elk-1 + GFRα1)
T1 sequence (P07949 29-1114): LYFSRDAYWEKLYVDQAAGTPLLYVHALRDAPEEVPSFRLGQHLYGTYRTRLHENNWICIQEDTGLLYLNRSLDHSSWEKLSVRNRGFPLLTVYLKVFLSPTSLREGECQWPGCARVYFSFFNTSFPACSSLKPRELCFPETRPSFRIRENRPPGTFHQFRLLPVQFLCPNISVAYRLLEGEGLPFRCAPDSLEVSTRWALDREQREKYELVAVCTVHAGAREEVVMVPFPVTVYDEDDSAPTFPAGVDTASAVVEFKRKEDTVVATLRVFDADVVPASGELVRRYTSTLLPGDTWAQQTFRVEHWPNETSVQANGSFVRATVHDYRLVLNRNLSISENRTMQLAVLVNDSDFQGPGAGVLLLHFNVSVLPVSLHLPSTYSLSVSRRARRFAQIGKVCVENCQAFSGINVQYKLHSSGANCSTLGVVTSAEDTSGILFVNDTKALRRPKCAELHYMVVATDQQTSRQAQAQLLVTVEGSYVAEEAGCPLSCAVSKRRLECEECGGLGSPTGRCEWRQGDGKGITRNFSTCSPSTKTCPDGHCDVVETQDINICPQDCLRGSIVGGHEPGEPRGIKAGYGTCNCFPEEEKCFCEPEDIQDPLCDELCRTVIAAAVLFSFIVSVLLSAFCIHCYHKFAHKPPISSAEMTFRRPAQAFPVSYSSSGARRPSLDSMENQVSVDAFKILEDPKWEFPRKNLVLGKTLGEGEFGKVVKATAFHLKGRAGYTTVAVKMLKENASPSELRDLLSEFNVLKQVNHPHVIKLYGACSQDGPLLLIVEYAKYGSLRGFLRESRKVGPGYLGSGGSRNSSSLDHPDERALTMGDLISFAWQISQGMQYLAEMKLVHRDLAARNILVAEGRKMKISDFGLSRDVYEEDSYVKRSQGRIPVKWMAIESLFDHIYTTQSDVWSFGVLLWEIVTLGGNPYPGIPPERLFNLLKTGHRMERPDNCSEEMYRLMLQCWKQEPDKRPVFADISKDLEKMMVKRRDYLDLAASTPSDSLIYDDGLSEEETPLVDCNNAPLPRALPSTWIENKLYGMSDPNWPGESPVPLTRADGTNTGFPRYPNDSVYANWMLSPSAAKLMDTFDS

[1] = test system: Akt and Erk phosphorylation in MG87TrkA; test: Erk1/2 and Akt phosphorylation assay in MG87TrkA cells; format: cell-based, murine; details: BT13 10–100 μM, NGF positive control
Experimental: (§1) MG87RET, MG87TrkA, or MG87TrkB were plated on 35 mm tissue culture dishes 1–2 days before the experiment to achieve 90–95% of confluency of the cells at the day of stimulation with tested substances. If necessary, cells were transfected with 4 μg/well of GFRα1-, GFRα3-, or green fluorescent protein (GFP)-expressing plasmid using Lipofectamine 2000 (Invitrogen) for DNA delivery as described by manufacturer. Before the experiment cells were starved in serum-free DMEM containing 15 mM HEPES, pH 7.2 and 1% DMSO for 4 h and stimulated with BT13 or neurotrophic factors. Then cells were washed once with ice-cold PBS containing 1 mM Na3VO4 and 1 mM NaF and lysed on ice in 1 ml per well of RIPA-modified buffer (50 mM Tris-HCl, pH 7.4, 150 mM NaCl, 1 mM EDTA, 1% NP-40, 1% TX-100, 10% glycerol, EDTA-free protease inhibitor cocktail (Roche), 1 mM Na3VO4, 2.5 mg/ml of sodium deoxycholate, 1 mM NaF). Plates were incubated at +4°C on the horizontal shaker for 30 min with vigorous shaking. Afterwards, 80–100 μl aliquot was taken from each well to prepare whole cell lysates. This aliquot was mixed with equal volume of 2x Laemmli loading buffer (4% SDS, 20% glycerol, 10% 2-mercaptoethanol, 0.004% bromphenol blue, 0.125 M Tris HCl, pH 6.8) and boiled for 10 min at 100°C. Remaining cell lysates were used for immunoprecipitation of RET or Trk receptors. […]

KATP channel = KATP channel (Rattus norvegicus, UniProt Q09429); test: CEREP KATP channel (antagonist radioligand); format: binding; details: BT13 1 μM; Cat. No. 0165; average of duplicate; read-out: Percentage of inhibition/potentiation from control
Chain of KATP channel (Q09429 whole entry): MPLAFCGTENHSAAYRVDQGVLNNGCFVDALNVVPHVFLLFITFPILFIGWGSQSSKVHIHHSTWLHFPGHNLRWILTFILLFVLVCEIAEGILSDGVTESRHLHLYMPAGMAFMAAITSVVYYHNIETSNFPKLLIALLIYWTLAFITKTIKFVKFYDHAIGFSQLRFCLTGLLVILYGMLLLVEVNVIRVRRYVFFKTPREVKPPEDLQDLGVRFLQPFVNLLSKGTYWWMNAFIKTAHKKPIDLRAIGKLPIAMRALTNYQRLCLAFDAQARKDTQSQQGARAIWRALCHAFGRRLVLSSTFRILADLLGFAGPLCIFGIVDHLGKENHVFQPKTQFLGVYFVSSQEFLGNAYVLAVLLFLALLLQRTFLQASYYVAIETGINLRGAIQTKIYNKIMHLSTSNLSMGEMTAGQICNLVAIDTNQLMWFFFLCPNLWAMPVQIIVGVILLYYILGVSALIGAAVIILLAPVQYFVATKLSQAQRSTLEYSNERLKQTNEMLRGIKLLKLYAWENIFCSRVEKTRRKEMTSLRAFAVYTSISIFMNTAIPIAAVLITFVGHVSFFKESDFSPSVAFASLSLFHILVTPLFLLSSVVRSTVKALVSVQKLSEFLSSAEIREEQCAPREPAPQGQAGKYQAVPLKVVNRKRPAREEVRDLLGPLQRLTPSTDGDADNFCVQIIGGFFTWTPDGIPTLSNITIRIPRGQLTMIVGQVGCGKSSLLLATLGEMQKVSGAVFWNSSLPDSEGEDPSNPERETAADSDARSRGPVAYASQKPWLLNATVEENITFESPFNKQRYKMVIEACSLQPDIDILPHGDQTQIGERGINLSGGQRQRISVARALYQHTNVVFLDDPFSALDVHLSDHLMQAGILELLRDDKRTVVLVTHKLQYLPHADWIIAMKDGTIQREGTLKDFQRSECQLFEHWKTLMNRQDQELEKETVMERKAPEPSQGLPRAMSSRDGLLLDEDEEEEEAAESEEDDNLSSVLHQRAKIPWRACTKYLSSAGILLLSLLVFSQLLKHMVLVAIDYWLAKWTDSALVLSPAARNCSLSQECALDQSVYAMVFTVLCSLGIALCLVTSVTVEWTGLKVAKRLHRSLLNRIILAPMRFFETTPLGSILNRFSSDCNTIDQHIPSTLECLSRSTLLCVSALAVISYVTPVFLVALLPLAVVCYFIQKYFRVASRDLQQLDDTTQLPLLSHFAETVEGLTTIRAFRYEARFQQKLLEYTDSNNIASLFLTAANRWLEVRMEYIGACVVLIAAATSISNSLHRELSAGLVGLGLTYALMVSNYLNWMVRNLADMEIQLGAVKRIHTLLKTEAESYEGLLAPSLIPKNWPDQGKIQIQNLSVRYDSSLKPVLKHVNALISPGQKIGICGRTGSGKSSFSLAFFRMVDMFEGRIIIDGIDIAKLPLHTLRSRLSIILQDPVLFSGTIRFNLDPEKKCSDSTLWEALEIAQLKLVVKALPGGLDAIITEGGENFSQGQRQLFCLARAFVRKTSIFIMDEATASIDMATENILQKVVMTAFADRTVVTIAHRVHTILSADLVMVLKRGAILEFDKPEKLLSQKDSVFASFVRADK
Chain of KATP channel (P70673 whole entry partner): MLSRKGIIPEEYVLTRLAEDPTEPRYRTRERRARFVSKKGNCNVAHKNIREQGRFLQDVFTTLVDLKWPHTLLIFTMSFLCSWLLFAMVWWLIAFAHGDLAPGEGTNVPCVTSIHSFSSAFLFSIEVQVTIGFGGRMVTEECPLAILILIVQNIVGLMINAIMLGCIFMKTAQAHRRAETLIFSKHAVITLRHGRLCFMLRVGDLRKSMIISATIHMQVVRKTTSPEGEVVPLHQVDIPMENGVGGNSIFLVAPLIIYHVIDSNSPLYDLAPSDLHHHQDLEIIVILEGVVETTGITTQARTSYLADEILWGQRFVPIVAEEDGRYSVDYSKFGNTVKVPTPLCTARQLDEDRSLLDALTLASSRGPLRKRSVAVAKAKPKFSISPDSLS

RET = biological target: T2, RET (Homo sapiens, UniProt P07949); test: Luciferase reporter-gene assay (PathDetect Elk-1), RET reporter cells; format: cell-based; details: RET reporter cell line
T2 construct: full-length human RET (long isoform) in pCR3.1; expressed in transfected cells; host or cells: MG87RET murine fibroblasts
T2 sequence (P07949 29-1114): as the sequence (P07949 29-1114) above

[2] = biological target: cholecystokinin receptor CCK2 (CCKB) (Homo sapiens, UniProt P32239); test: CEREP CCK2 (CCKB) (h) (agonist radioligand); format: binding; details: BT13 1 μM; Cat. No. 0041; average of duplicate; read-out: Percentage of inhibition/potentiation from control
Chain of cholecystokinin receptor CCK2 (CCKB) (P32239 whole entry): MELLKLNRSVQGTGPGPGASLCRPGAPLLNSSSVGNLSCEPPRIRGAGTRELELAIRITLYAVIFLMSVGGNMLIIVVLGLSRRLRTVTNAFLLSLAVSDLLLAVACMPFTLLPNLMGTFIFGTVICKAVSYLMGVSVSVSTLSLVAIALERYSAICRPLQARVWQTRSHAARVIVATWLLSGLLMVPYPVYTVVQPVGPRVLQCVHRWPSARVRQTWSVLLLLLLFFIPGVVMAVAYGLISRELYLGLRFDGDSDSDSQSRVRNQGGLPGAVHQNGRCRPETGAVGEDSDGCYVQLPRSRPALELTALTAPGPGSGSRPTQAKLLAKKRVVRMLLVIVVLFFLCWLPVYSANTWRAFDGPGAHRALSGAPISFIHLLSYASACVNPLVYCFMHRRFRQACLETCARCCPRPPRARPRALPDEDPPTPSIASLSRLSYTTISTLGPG

[3] = test system: Akt and Erk phosphorylation in MG87TrkB; test: Erk1/2 and Akt phosphorylation assay in MG87TrkB cells; format: cell-based, murine; details: BT13 10–100 μM, BDNF positive control
Experimental: as §1

TrkA = TrkA phosphorylation assay in MG87TrkA cells; format: cell-based; details: BT13 10–100 μM, NGF positive control
Experimental: as §1

TrkB = biological target: T3, TrkB (Rattus norvegicus, UniProt Q63604); test: TrkB phosphorylation assay in MG87TrkB cells; format: cell-based; details: BT13 10–100 μM, BDNF positive control
T3 construct: expressed in transfected cells; host or cells: MG87 murine fibroblasts (MG87TrkB)
T3 sequence (Q63604 32-821): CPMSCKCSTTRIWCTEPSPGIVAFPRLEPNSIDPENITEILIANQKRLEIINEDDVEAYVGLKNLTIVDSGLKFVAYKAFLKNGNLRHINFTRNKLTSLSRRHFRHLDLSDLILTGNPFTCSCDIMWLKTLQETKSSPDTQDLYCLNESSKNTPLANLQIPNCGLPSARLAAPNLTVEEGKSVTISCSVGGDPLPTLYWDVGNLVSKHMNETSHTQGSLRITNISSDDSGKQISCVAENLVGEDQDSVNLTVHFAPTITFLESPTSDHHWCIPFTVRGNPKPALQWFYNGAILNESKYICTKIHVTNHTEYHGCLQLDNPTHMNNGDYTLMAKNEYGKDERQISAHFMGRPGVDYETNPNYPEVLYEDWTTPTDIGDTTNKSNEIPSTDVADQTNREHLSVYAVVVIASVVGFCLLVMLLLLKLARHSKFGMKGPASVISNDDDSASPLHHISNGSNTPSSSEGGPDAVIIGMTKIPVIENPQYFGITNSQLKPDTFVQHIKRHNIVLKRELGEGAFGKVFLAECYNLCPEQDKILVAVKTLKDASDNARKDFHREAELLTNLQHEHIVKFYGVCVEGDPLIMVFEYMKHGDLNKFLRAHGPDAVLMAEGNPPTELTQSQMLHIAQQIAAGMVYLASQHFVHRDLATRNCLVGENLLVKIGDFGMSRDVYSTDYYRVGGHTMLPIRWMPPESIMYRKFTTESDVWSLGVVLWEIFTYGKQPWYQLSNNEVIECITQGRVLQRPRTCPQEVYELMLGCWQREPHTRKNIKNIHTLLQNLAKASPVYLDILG
Experimental: as §1

[4] = biological target: T4, opioid receptor kappa (KOP) (Rattus norvegicus, UniProt P34975); test: CEREP Kappa (KOP) (agonist radioligand); format: binding; details: BT13 1 μM; Cat. No. 1971; average of duplicate; read-out: Percentage of inhibition/potentiation from control
T4 construct: purchased CEREP (contract assay) 1971
T4 sequence (P34975 whole entry): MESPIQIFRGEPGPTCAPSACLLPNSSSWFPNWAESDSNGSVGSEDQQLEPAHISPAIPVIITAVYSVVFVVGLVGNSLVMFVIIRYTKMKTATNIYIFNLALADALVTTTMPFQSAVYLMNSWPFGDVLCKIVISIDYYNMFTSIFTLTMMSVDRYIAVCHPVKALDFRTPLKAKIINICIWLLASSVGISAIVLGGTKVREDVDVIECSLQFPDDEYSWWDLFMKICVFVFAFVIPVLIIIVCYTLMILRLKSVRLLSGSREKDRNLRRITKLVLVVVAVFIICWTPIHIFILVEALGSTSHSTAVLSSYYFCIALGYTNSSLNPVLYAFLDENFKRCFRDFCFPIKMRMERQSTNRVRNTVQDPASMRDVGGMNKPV

[5] = 0.1–50 μM, read-out: EC50, luciferase activation

CCN(CC)S(=O)(=O)c1ccc(OC)c(N2CCN(C(=O)c3ccc(F)cc3C(F)(F)F)CC2)c1 [BT13]
efficacy, fold induction of luciferase above baseline (GFRα1/RET): 11.6 fold
pEC50 (GFRα1/RET; [5]): 4.76
Akt and Erk phosphorylation [1]: no Akt or Erk phosphorylation was observed
inhibition at 1 µM (KATP channel): 8%
efficacy, fold induction of luciferase above baseline (RET): 7.4 fold
pEC50 (RET; [5]): 4.68
inhibition at 1 µM [2]: 1%
Akt and Erk phosphorylation [3]: no Akt or Erk phosphorylation was observed
TrkA phosphorylation, Western blotting (TrkA): did not produce any detectable increase
TrkB phosphorylation, Western blotting (TrkB): did not produce any detectable increase
inhibition at 1 µM [4]: 0%
